Experimental findings from ChEMBL document CHEMBL1921689, “Synthesis and biological profile of new 1,2,3,4-tetrahydroisoquinolines as selective carbonic anhydrase inhibitors” (Bioorg Med Chem, 2011) are described below.

The experiment deals with Carbonic anhydrase 9 (Homo sapiens, UniProt Q16790). The experiment in a line: Inhibition of human CA9 catalytic domain preincubated for 15 mins by stopped flow CO2 hydration assay.
As to `COc1ccc2c(c1)CCN(S(N)(=O)=O)C2c1ccc(N)cc1` (racemic), the affinity corresponds to a Ki of 12 nM.

In the case of `COc1ccc2c(c1)CCN(S(N)(=O)=O)C2c1ccc(F)cc1` (racemic), the Ki came to 31 nM.

Compound `COc1ccc2c(c1)CCN(S(N)(=O)=O)C2c1cccc([N+](=O)[O-])c1` (racemic) yielded a Ki of 16 nM.

Take `COc1ccc2c(c1)CCN(S(N)(=O)=O)C2c1ccc([N+](=O)[O-])cc1` (racemic): the Ki amounted to 5 nM.

Consider `COc1ccc2c(c1)CCN(S(N)(=O)=O)C2c1ccccc1` (racemic), for which the Ki worked out at 78 nM.

Regarding `COc1ccc2c(c1)CCN(S(N)(=O)=O)C2c1ccc(C)cc1` (racemic), the affinity, expressed as Ki, was 7.5 nM.

As for `COc1ccc2c(c1)CCN(S(N)(=O)=O)C2c1ccc(C#N)cc1` (racemic), the affinity corresponds to a Ki of 7 nM.

Compound `COc1ccc2c(c1)CCN(S(N)(=O)=O)C2c1cccc(N)c1` (racemic) returned an inhibitory constant (Ki) of 18 nM. This Ki is about 2.6-fold higher than that of the compound before.

Turning to `COc1ccc2c(c1)CCN(S(N)(=O)=O)C2c1ccc(Br)cc1` (racemic), the Ki came to 60.7 nM.
